In patent US6613322B2, “Method for treating a subject suffering from conditions associated with an extracellular zinc sphingomyelinase” (The Trustees of Columbia University in the City of New York, priority 1997, dated 2003):

Tests used:
[1] = biological target: T1, S-SMase (Homo sapiens, UniProt P17405); test: SMase assay of endothelial cell (HUVEC) conditioned medium; type: biochemical; parameters: endogenous in cells; host or cells: primary HUVEC, 24-h serum-free conditioned medium
T1 sequence (P17405 47-631): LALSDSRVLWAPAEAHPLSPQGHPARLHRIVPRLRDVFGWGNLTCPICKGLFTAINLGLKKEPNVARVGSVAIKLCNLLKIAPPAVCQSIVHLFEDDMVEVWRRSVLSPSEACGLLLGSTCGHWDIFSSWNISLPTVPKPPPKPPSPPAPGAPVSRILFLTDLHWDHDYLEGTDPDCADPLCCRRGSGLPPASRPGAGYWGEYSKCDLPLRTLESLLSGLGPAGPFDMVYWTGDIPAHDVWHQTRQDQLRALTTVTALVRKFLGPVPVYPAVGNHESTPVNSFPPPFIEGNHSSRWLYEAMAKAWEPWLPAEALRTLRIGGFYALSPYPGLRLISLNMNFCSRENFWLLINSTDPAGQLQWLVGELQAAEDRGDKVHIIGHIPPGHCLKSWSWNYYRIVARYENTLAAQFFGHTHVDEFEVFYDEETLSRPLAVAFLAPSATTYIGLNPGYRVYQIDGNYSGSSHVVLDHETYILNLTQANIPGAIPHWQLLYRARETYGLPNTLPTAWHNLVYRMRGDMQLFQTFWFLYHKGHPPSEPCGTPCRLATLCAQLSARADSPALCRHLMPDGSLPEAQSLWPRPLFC
Experimental: FIGS. 20A-B. Cultured human endothelial cells secrete abundant amounts of S-SMase.
(§1) Smase Assay—As previously described (15), the standard 200-μl assay mixture consisted of up to 40 μl of sample (conditioned media or homogenized cells; see above, and a volume of assay buffer (0.1 M sodium acetate, pH 5.0) to bring the volume to 160 μl. The reaction was initiated by the addition of 40 μl substrate (50 pmol [^3H]sphingomyelin) in 0.25 M sucrose containing 3% Triton X-100 (final concentration of Triton X-100 in the 200-μl assay mix=0.6%). When added, the final concentrations of EDTA and Zn^2+ were 5 mM and 0.1 mM, respectively, unless indicated otherwise. The assay mixtures were incubated at 37° C. for no longer than 3 h and then extracted by the method of Bligh and Dyer (37); the lower, organic phase was harvested, evaporated under N2, and fractionated by TLC using chloroform:methanol (95:5). The ceramide spots were scraped and directly counted to quantify [^3H]ceramide. Typically, our assay reactions contained approximately 20 μg of cellular homogenate protein and a volume of conditioned media derived from a quantity of cells equivalent to approximately 50 μg of cellular protein.

[2] = biological target: T2, L-SMase (Homo sapiens, UniProt P17405); test: SMase assay of HUVEC cell homogenate, zinc-dependency; type: biochemical
T2 construct: endogenous in cells; host or cells: HUVEC, sonicated cell homogenate
T2 sequence (P17405 47-631): T1 sequence (P17405 47-631)
Experimental: as §1

[3] = tested on: S-SMase of HUVECs; test: Immunoblot of S-SMase from conditioned medium of HUVECs; type: cell-based, human; details: conditioned medium of IL-1β-treated HUVECs
Experimental: FIG. 26. Immunoblot analysis of L- and S-SMase from control and IL-1β-treated HUVECs. HUVECs were incubated for 18 h in DMEM, 0.2% BSA alone (Con) or containing human recombinant interleukin-1β (5 ng/ml) (IL1β). SMase was partially purified from the cell homogenates and conditioned media of these cells, and then aliquots derived from equivalent numbers of cells were subjected to immunoblot analysis. Specifically, conditioned medium from control and IL-1(-treated cells yielded 256.0 and 262.5 μg of concanavalin A eluate protein, of which 60.8 μg and 60.0 μg aliquots were loaded onto the SDS-PAGGE gel, respectively. Cell homogenates from control and IL-1β-treated cells yielded 168.1 and 160.6 μg of DEAE flow-through protein, of which 59.5 μg and 60.0 μg aliquots were loaded onto the SDS-PAGGE gel, respectively. No band at the molecular weight of L-SMase was visible in conditioned media (right-hand panels), even when overexposed.
Partial Purification of L- and S-SMase from HUVECs—A modification of previously published procedures (39) was used. Cells were scraped in ice-cold 40 mM Tris-HCl, 0.1 mM ZnCl2, 0.1% NP-40, pH 7.2 (Buffer A), disrupted by sonication on ice using three 5-second bursts (Branson 450 Sonifier) and centrifuged at 100,000×g for one hour. […]

[4] = tested on: S-SMase secretion by HUVECs; test: Cytokine regulation of S-SMase secretion by HUVECs (SMase activity in conditioned media); type: cell-based, human; details: 18 h, IL-1β 5 ng/ml, interferon-γ 1000 units/ml
Experimental: Conditioned media (FIG. 23A) and cell homogenates (FIG. 23B) from these cells were then assayed for SMase activity in the presence or absence of 0.1 mM ZnCl2, respectively.
The cells were then washed 3 times with PBS and incubated for 24 h in 1 ml fresh serum-free media containing 0.2%6 BSA. This 24-h conditioned medium was collected for SMase assays.
Harvesting of Cells and Conditioned Media—Following the incubations described above and in the figure legends, cells were placed on ice and the serum-free conditioned media was removed. The cells were washed two times with ice-cold 0.25 M sucrose and scraped into 0.3 ml and 3.0 ml of this sucrose solution per 35-mm and 100-mm dishes, respectively. Unless indicated otherwise, the scraped cells were disrupted by sonication on ice using three 5-second bursts (Branson 450 Sonifier), and the cellular homogenates were assayed for total protein by the method of Lowry et al. (22) and for SMase activity as described below. The conditioned media were spun at 800×g for 5 min to pellet any contaminating cells and concentrated six-fold using a Centriprep 30 (Amicon; Beverly, Mass.) concentrator (molecular weight cut off=30,000).

Compound | stimulation of SMase secreted by endothelial cells by exogenous Zn2+ [1] | increase of enzymatic activity of S-SMase by Zn2+ ([1]; S-SMase from IL-1β-treated HUVECs) | increase of enzymatic activity of S-SMase by Zn2+ ([1]; S-SMase from untreated HUVECs) | increase of enzymatic activity of L-SMase by Zn2+ ([2]; L-SMase from IL-1β-treated HUVECs) | increase of enzymatic activity of L-SMase by Zn2+ ([2]; L-SMase from untreated HUVECs) | increase of higher-Mr S-SMase by densitometry of immunoblot [3] | increase of S-SMase activity / secretion (conditioned media) [4]
[Cl-].[Cl-].[Zn+2] [Zn^2+, ZnCl2] | two-fold | 1.77±0.03 fold | 1.78±0.17 fold | 1.13±0.08 fold | 1.09±0.04 fold | – | –
IL-1β: human recombinant interleukin-1β | – | – | – | – | – | approximately two-fold | ~3 fold
